Assay results from patent publication EP4737454A1, “GLP-1 RECEPTOR AGONIST, AND PREPARATION METHOD THEREFOR AND USE THEREOF” (Wayne Biotechnology Co., Ltd., priority 2023, dated 2025).

Target: Human GLP-1R (Homo sapiens, UniProt P43220)
Assay: cAMP level determination in human GLP-1R stably transfected HEK293T cells (HTRF cAMP kit)
Assay type: cell-based
Conditions: 37°C 30 min
Experimental: Human GLP-1R HEK293T stably transfected cells were digested with trypsin, terminated with DMEM total (without p/s), centrifuged and washed twice with 1X Stimulation buffer, then resuspended in 1X stimulation buffer and counted. The cells were then prepared as a 1 Million/mL cell suspension in stimulation buffer. Compound powder was first prepared as a 10 mM stock solution in DMSO, then diluted to 2 mM with DMSO, and further prepared as 2X compound in 1X stimulation buffer (Cisbio kit buffer with freshly added IBMX at a final concentration of 0.5 mM). The top dose final concentration was 2000 nM, with a final DMSO concentration of 0.2%, diluted in a 1:3 gradient for 11 gradients.
According to the layout, 5 µl of compound was added to each well; Min wells contained 100 nM GLP-1, and Max wells contained 0.2% DMSO in 1X stimulation buffer. 5 µl of cell suspension was added to each well, centrifuged at 300 rpm at room temperature for 1 min, then incubated at 37°C for 30 min. 2X cAMP standards were prepared in 1X Stimulation buffer, with a top final concentration of 2.8 µM, diluted in a 1:3 gradient for 12 doses. According to the layout, 10 µl was added to each well. Finally, d2 and antibody were diluted 20-fold in 1X Detection buffer (Cisbio kit buffer), and 5 µl of each was added to each well according to the layout. After centrifugation at 300 rpm at room temperature for 1 min, the plate was incubated at room temperature for 2 hr.
Stimulation% was calculated based on Min and Max readings (665nm/615nm ratio) using the formula: 100*(ratio Max well - ratio test well)/(ratio Max well - ratio Min well). The cAMP concentration in each test well was derived from the cAMP standard curve, and the data was analyzed using GraphPad Prism 9 to plot four-parameter fit curves and calculate EC50 values using the formula: Y=Bottom + (Top-Bottom)/(1+10^((LogEC50-X)*HillSlope)). Table 1: cAMP Level Determination in Human GLP-1R Stably Transfected HEK293T Cells

Chain of Human GLP-1R (P43220 24-463): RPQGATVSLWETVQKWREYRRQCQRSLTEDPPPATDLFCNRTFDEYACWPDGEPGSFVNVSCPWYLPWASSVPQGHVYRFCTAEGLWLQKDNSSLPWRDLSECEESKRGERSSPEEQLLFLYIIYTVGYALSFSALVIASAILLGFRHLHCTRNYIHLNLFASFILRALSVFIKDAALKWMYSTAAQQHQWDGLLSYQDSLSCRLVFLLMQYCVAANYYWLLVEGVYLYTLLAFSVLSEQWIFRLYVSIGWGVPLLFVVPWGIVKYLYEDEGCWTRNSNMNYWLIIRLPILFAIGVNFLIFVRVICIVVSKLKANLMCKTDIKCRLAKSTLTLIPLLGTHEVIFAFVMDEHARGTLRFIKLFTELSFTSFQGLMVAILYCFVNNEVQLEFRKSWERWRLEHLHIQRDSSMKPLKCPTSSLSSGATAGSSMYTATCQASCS

Compound | EC50
Cc1cc(-n2ccn(-c3c4c(nn3-c3cc(C)c(F)c(C)c3)CCN(C(=O)c3cc5cc(C6CCOC(C)(C)C6)ccc5n3[C@@]3(c5nc(=O)o[nH]5)C[C@@H]3C)[C@H]4C)c2=O)ccc1C#N (stereo partly shown) [Compound 87] | 17.6 nM
Cc1cc(-n2nc3c(c2-n2ccn(-c4ccc(N(C)C(=O)C5CC5)c(C(F)(F)F)c4)c2=O)[C@H](C)N(C(=O)c2cc4cc([C@H]5CCOC(C)(C)C5)ccc4n2[C@@]2(c4nc(=O)o[nH]4)C[C@@H]2C)CC3)cc(C)c1F [Compound 74] | 3.25 nM
Cc1cc(C#N)ccc1-n1ccn(-c2c3c(nn2-c2cc(C)c(F)c(C)c2)CCN(C(=O)c2cc4cc(C5CCOC(C)(C)C5)ccc4n2[C@@]2(c4nc(=O)o[nH]4)C[C@@H]2C)[C@H]3C)c1=O (stereo partly shown) [Compound 88] | 205 nM
Cc1cc(-n2nc3c(c2-n2ccn(-c4ccc(C(=O)N(C)C5CC5)c(OC(F)(F)F)c4F)c2=O)[C@H](C)N(C(=O)c2cc4cc([C@H]5CCOC(C)(C)C5)ccc4n2[C@@]2(c4nc(=O)o[nH]4)C[C@@H]2C)CC3)cc(C)c1F [Compound 54] | 4.48 nM
Cc1cc(-n2nc3c(c2-n2ccn(-c4ccc(C(=O)N(C)C5CC5)c(OC(F)F)c4)c2=O)[C@H](C)N(C(=O)c2cc4cc(C5CCOC(C)(C)C5)ccc4n2[C@@]2(c4nc(=O)o[nH]4)C[C@@H]2C)CC3)cc(C)c1F (stereo partly shown) [Compound 31] | 15.1 nM
Cc1cc(-n2nc3c(c2-n2ccn(-c4ccc(C#N)cc4F)c2=O)[C@H](C)N(C(=O)c2cc4cc([C@H]5CCOC(C)(C)C5)ccc4n2[C@@]2(c4nc(=O)o[nH]4)C[C@@H]2C)CC3)cc(C)c1F [Compound 81b] | 3.92 nM
Cc1cc(-n2nc3c(c2-n2ccn(-c4ccc(C#N)nc4)c2=O)[C@H](C)N(C(=O)c2cc4cc(C5CCOC(C)(C)C5)ccc4n2[C@@]2(c4nc(=O)o[nH]4)C[C@@H]2C)CC3)cc(C)c1F (stereo partly shown) [Compound 91] | 38.4 nM
Cc1cc(-n2nc3c(c2-n2ccn(-c4ccc(C#N)cn4)c2=O)[C@H](C)N(C(=O)c2cc4cc(C5CCOC(C)(C)C5)ccc4n2[C@@]2(c4nc(=O)o[nH]4)C[C@@H]2C)CC3)cc(C)c1F (stereo partly shown) [Compound 85] | 50.2 nM
Cc1cc(-n2nc3c(c2-n2ccn(-c4ccccc4C(=O)N(C)C4CC4)c2=O)[C@H](C)N(C(=O)c2cc4cc(C5CCOC(C)(C)C5)ccc4n2[C@@]2(c4nc(=O)o[nH]4)C[C@@H]2C)CC3)cc(C)c1F (stereo partly shown) [Compound 39] | 11.3 nM
Cc1cc(-n2nc3c(c2-n2ccn(-c4cc(F)c(C(=O)N(C)C5CC5)cc4F)c2=O)C(C)N(C(=O)c2cc4cc(C5CCOC(C)(C)C5)ccc4n2C2(c4nc(=O)o[nH]4)CC2C)CC3)cc(C)c1F (stereo not shown) [Compound 26] | 11.5 nM
Cc1cc(-n2nc3c(c2-n2ccn(-c4ccccc4C#N)c2=O)[C@H](C)N(C(=O)c2cc4cc(C5CCOC(C)(C)C5)ccc4n2[C@@]2(c4nc(=O)o[nH]4)C[C@@H]2C)CC3)cc(C)c1F (stereo partly shown) [Compound 89] | 201 nM
Cc1cc(-n2nc3c(c2-n2ccn(-c4ccc(C(=O)N(C)C5CC5)cc4)c2=O)[C@H](C)N(C(=O)c2cc4cc([C@H]5CCOC(C)(C)C5)ccc4n2[C@@]2(c4nc(=O)o[nH]4)C[C@@H]2C)CC3)cc(C)c1F [Compound 10] | 8.55 nM
Cc1cc(-n2nc3c(c2-n2ccn(-c4ccc(C(=O)N(C)C5(C(F)(F)F)CC5)cc4)c2=O)[C@H](C)N(C(=O)c2cc4cc(C5CCOC(C)(C)C5)ccc4n2[C@@]2(c4nc(=O)o[nH]4)C[C@@H]2C)CC3)cc(C)c1F (stereo partly shown) [Compound 16] | 10 nM
Cc1cc(-n2nc3c(c2-n2ccn(-c4ccc(C(=O)N(C)C5CC5)nn4)c2=O)[C@H](C)N(C(=O)c2cc4cc(C5CCOC(C)(C)C5)ccc4n2[C@@]2(c4nc(=O)o[nH]4)C[C@@H]2C)CC3)cc(C)c1F (stereo partly shown) [Compound 30] | 206 nM
Cc1cc(-n2nc3c(c2-n2ccn(-c4ccc(C(=O)N(C)C5CC5)cn4)c2=O)[C@H](C)N(C(=O)c2cc4cc(C5CCOC(C)(C)C5)ccc4n2[C@@]2(c4nc(=O)o[nH]4)C[C@@H]2C)CC3)cc(C)c1F (stereo partly shown) [Compound 29] | 102 nM
Cc1cc(-n2nc3c(c2-n2ccn(-c4ccc(OC(F)(F)F)c(C(=O)N(C)C5CC5)c4)c2=O)[C@H](C)N(C(=O)c2cc4cc(C5CCOC(C)(C)C5)ccc4n2[C@@]2(c4nc(=O)o[nH]4)C[C@@H]2C)CC3)cc(C)c1F (stereo partly shown) [Compound 38] | 18.1 nM
Cc1cc(-n2nc3c(c2-n2ccn(-c4cc(F)c(C#N)cc4F)c2=O)[C@H](C)N(C(=O)c2cc4cc(C5CCOC(C)(C)C5)ccc4n2[C@@]2(c4nc(=O)o[nH]4)C[C@@H]2C)CC3)cc(C)c1F (stereo partly shown) [Compound 83] | 12.8 nM
Cc1cc(-n2nc3c(c2-n2ccn(-c4ccc(C#N)cc4)c2=O)[C@H](C)N(C(=O)c2cc4cc(C5CCOC(C)(C)C5)ccc4n2[C@@]2(c4nc(=O)o[nH]4)C[C@@H]2C)CC3)cc(C)c1F (stereo partly shown) [Compound 90] | 15.1 nM
Cc1cc(-n2nc3c(c2-n2ccn(-c4ccc(N(C)C(=O)C5CCC5)c(F)c4)c2=O)[C@H](C)N(C(=O)c2cc4cc([C@H]5CCOC(C)(C)C5)ccc4n2[C@@]2(c4nc(=O)o[nH]4)C[C@@H]2C)CC3)cc(C)c1F [Compound 72] | 9.71 nM
Cc1cc(-n2nc3c(c2-n2ccn(-c4ccc(C#N)c(C5CC5)c4)c2=O)[C@H](C)N(C(=O)c2cc4cc(C5CCOC(C)(C)C5)ccc4n2[C@@]2(c4nc(=O)o[nH]4)C[C@@H]2C)CC3)cc(C)c1F (stereo partly shown) [Compound 79] | 17.8 nM
Cc1cc(-n2nc3c(c2-n2ccn(-c4ccc(N(C)C5CC5)c(Cl)c4)c2=O)[C@H](C)N(C(=O)c2cc4cc(C5CCOC(C)(C)C5)ccc4n2[C@@]2(c4nc(=O)o[nH]4)C[C@@H]2C)CC3)cc(C)c1F (stereo partly shown) [Compound 67] | 67.8 nM
Cc1cc(-n2nc3c(c2-n2ccn(-c4ccc(C(F)(F)F)c(C(=O)N(C)C5CC5)c4)c2=O)[C@H](C)N(C(=O)c2cc4cc(C5CCOC(C)(C)C5)ccc4n2[C@@]2(c4nc(=O)o[nH]4)C[C@@H]2C)CC3)cc(C)c1F (stereo partly shown) [Compound 37] | 18.8 nM
Cc1cc(-n2nc3c(c2-n2ccn(-c4ccc5c(c4)CCN(C4CC4)C5=O)c2=O)[C@H](C)N(C(=O)c2cc4cc(C5CCOC(C)(C)C5)ccc4n2[C@@]2(c4nc(=O)o[nH]4)C[C@@H]2C)CC3)cc(C)c1F (stereo partly shown) [Compound 55] | 8.07 nM
Cc1cc(-n2nc3c(c2-n2ccn(-c4ccc5c(c4)C=CS5(=O)=O)c2=O)[C@H](C)N(C(=O)c2cc4cc([C@H]5CCOC(C)(C)C5)ccc4n2[C@@]2(c4noc(=O)[nH]4)C[C@@H]2C)CC3)cc(C)c1F [Compound 62b] | 4.53 nM
Cc1cc(-n2nc3c(c2-n2ccn(-c4ccc(C#N)cc4F)c2=O)[C@H](C)N(C(=O)c2cc4cc(C5CCOC(C)(C)C5)ccc4n2[C@@]2(c4nc(=O)o[nH]4)C[C@@H]2C)CC3)cc(C)c1F (stereo partly shown) [Compound 81] | 11 nM
Cc1cc(-n2ccn(-c3c4c(nn3-c3cc(C)c(F)c(C)c3)CCN(C(=O)c3cc5cc(C6CCOC(C)(C)C6)ccc5n3[C@@]3(c5nc(=O)o[nH]5)C[C@@H]3C)[C@H]4C)c2=O)ccc1C(=O)N(C)C1(C)CC1 (stereo partly shown) [Compound 35] | 20 nM
Cc1cc(-n2nc3c(c2-n2ccn(-c4ccc(C#N)c(F)c4F)c2=O)[C@H](C)N(C(=O)c2cc4cc(C5CCOC(C)(C)C5)ccc4n2[C@@]2(c4nc(=O)o[nH]4)C[C@@H]2C)CC3)cc(C)c1F (stereo partly shown) [Compound 93] | 15.1 nM
Cc1cc(-n2nc3c(c2-n2ccn(-c4ccc(C(=O)NC5CC5)cc4)c2=O)[C@H](C)N(C(=O)c2cc4cc(C5CCOC(C)(C)C5)ccc4n2[C@@]2(c4nc(=O)o[nH]4)C[C@@H]2C)CC3)cc(C)c1F (stereo partly shown) [Compound 46] | 77.9 nM
